In patent US10167257B2, “Indole derivatives for use in medicine” (IOmet Pharma Ltd., priority 2014, dated 2019):

Experiments:
IDO (SKOV-3 cells) = target: T1, IDO (SKOV-3 cells) (Homo sapiens, UniProt P14902); test: IDO cell-based assay (SKOV-3, IFNγ-induced), kynurenine production; details: SKOV-3 ovary adenocarcinoma cells, IFNγ 500 ng/ml, 500 μM L-Trp, 48 h, kynurenine by absorbance at 490 nm
T1 construct: This assay utilised cancer cells which expressed either TDO or IDO; host or cells: SKOV-3 ovary adenocarcinoma cells, IFNγ-induced
Text: (§1) Two different types of assay were employed: 1. A TDO and IDO biochemical coupled assay which utilised recombinantly produced and purified TDO and IDO enzymes in combination with the enzyme formamidase. This coupled enzyme system allowed conversion of N-formylkynurenine produced by TDO or IDO activity to kynurenine which was then quantified by fluorescence following addition of Erhlich's Reagent. 2. A cell-based assay for detecting the effect of test compounds on kynurenine production in two different cancer cell types. This assay utilised cancer cells which expressed either TDO or IDO and as such was used as a means of testing compound activity at these two enzymes in a cell-based context. The protocols for these are set out below.
(§2) A172 human glioblastoma (ATCC) were grown in DMEM+2 mM L-glutamine medium supplemented with 10% foetal bovine serum and SKOV-3 ovary adenocarcinoma (ATCC) cells were grown in McCoys 5A+L-glutamax medium supplemented with 15% foetal bovine serum. On the day of assay, cells were detached using trypsin-EDTA (0.25% v/v), re-suspended in assay media (RPMI 1640 phenol red free+L-glutamine supplemented with 10% dialysed foetal bovine serum). A172 cells were seeded at 30K cells per well and SKOV-3 cells at 40K cells per well into 96-well plates containing test samples/vehicle control together with 500 μM L-Trp. Cells were then incubated for 48 h at 37° C., 5% CO2. In SK-OV-3 cells, IFNγ was also added at 500 ng/ml for the 48 h incubation in order to induce expression of IDO. Plates were centrifuged and the supernatant was removed and incubated for 5 min in the presence of 1% Erhlich's reagent. Kynurenine levels were then quantified by measuring absorbance at 490 nm.

TDO (A172 cells) = target: T2, TDO (A172 cells) (Homo sapiens, UniProt P48775); test: TDO cell-based assay (A172), kynurenine production; details: A172 human glioblastoma cells, 500 μM L-Trp, 48 h, kynurenine by absorbance at 490 nm
T2 construct: This assay utilised cancer cells which expressed either TDO or IDO; host or cells: A172 human glioblastoma cells
Text: as §1, §2

T1 sequence (P14902 whole entry): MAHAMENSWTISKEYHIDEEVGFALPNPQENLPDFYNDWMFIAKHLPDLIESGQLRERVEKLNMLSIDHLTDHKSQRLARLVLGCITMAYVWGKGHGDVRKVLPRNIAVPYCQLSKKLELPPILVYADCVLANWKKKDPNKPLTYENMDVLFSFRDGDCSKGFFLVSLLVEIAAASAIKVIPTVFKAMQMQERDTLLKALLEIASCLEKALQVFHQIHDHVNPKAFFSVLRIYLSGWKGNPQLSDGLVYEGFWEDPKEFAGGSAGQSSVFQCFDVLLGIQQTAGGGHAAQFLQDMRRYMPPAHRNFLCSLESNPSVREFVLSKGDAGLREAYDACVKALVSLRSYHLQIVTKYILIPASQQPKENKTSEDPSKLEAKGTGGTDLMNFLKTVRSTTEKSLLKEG
T2 sequence (P48775 whole entry): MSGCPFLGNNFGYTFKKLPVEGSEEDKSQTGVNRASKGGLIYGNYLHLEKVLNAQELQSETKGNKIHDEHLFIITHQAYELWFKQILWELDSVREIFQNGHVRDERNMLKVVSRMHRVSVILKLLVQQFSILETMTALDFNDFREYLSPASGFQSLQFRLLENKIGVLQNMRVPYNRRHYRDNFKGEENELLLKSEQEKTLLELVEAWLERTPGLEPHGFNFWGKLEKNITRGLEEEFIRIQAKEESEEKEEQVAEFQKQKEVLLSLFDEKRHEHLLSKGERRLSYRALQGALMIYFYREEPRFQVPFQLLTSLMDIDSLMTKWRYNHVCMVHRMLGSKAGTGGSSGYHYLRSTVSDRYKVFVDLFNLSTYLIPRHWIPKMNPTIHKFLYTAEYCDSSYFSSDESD

IDO cellular assay (SKOV3) pIC50 (IDO (SKOV-3 cells))	TDO cellular assay (A172) pIC50 (TDO (A172 cells))	SMILES
+ (+ = pIC50 4.50-<5.00)	++ (++ = pIC50 5.00-<5.50)	CC(C)NC(=O)c1cc2cc(Cl)ccc2[nH]1 [Compound 67]
+++ (+++ = pIC50 ≥5.50)	++ (++ = pIC50 5.00-<5.50)	CC(C)(NC(=O)c1cc2cc(Cl)ccc2[nH]1)c1ccccc1 [Compound 68]
+++ (+++ = pIC50 ≥5.50)	++ (++ = pIC50 5.00-<5.50)	CC(NC(=O)c1cc2cc(Cl)ccc2[nH]1)C1CCCCC1 (stereo not drawn) [Compound 69]
+++ (+++ = pIC50 ≥5.50)	++ (++ = pIC50 5.00-<5.50)	COc1ccc(C(C)NC(=O)c2cc3cc(Cl)ccc3[nH]2)cc1 (stereo not drawn) [Compound 70]
+++ (+++ = pIC50 ≥5.50)	+ (+ = pIC50 4.50-<5.00)	CC(C)C(C)NC(=O)c1cc2cc(Cl)ccc2[nH]1 (stereo not drawn) [Compound 71]
+++ (+++ = pIC50 ≥5.50)	− (− = pIC50 <4.50)	C[C@@H](NC(=O)c1cc2cc(Cl)ccc2[nH]1)c1ccc(Cl)cc1 [Compound 72]
+ (+ = pIC50 4.50-<5.00)	− (− = pIC50 <4.50)	C[C@@H](NC(=O)c1nc2ccccc2o1)c1ccccc1 [Compound 73]
+ (+ = pIC50 4.50-<5.00)	− (− = pIC50 <4.50)	O=C(NC1CCOc2ccccc21)c1cc2ccccc2[nH]1 (stereo not drawn) [Compound 74]
+++ (+++ = pIC50 ≥5.50)	− (− = pIC50 <4.50)	C[C@H](NC(=O)c1cc2cc(Cl)ccc2[nH]1)c1ccc(Cl)cc1 [Compound 75]
+ (+ = pIC50 4.50-<5.00)	− (− = pIC50 <4.50)	C[C@H](NC(=O)c1nc2ccccc2o1)c1ccccc1 [Compound 76]
+++ (+++ = pIC50 ≥5.50)	+ (+ = pIC50 4.50-<5.00)	Cc1cccc2[nH]c(C(=O)NC(C)c3ccccc3)cc12 (stereo not drawn) [Compound 77]
++ (++ = pIC50 5.00-<5.50)	+ (+ = pIC50 4.50-<5.00)	Cc1ccc2cc(C(=O)NC(C)c3ccccc3)[nH]c2c1 (stereo not drawn) [Compound 78]
+ (+ = pIC50 4.50-<5.00)	− (− = pIC50 <4.50)	CC(NC(=O)c1cc2cnccc2[nH]1)c1ccccc1 (stereo not drawn) [Compound 79]
++ (++ = pIC50 5.00-<5.50)	− (− = pIC50 <4.50)	CC(NC(=O)c1cc2cccnc2[nH]1)c1ccccc1 (stereo not drawn) [Compound 80]
+ (+ = pIC50 4.50-<5.00)	− (− = pIC50 <4.50)	CC(NC(=O)c1cc2ccncc2[nH]1)c1ccccc1 (stereo not drawn) [Compound 81]
+++ (+++ = pIC50 ≥5.50)	+++ (+++ = pIC50 ≥5.50)	CC(NC(=O)c1cc2cc(C#N)ccc2[nH]1)c1ccccc1 (stereo not drawn) [Compound 82]
+++ (+++ = pIC50 ≥5.50)	++ (++ = pIC50 5.00-<5.50)	CC(NC(=O)c1cc2cc(Cl)ccc2[nH]1)c1ccc(S(C)(=O)=O)cc1 (stereo not drawn) [Compound 84]
++ (++ = pIC50 5.00-<5.50)	++ (++ = pIC50 5.00-<5.50)	CC(NC(=O)c1cc2ccc(C#N)cc2[nH]1)c1ccccc1 (stereo not drawn) [Compound 85]
+++ (+++ = pIC50 ≥5.50)	+++ (+++ = pIC50 ≥5.50)	CC(Cc1ccccc1)NC(=O)c1cc2cc(Cl)ccc2[nH]1 (stereo not drawn) [Compound 86]
+++ (+++ = pIC50 ≥5.50)	+ (+ = pIC50 4.50-<5.00)	CC(NC(=O)c1cc2cc(Cl)ccc2[nH]1)c1ccc(N(C)C)cc1 (stereo not drawn) [Compound 87]
− (− = pIC50 <4.50)	+++ (+++ = pIC50 ≥5.50)	CC(NC(=O)c1cc2cc(C(N)=O)ccc2[nH]1)c1ccccc1 (stereo not drawn) [Compound 88]
− (− = pIC50 <4.50)	+++ (+++ = pIC50 ≥5.50)	CC(NC(=O)c1cc2ccc(C(N)=O)cc2[nH]1)c1ccccc1 (stereo not drawn) [Compound 89]
+++ (+++ = pIC50 ≥5.50)	− (− = pIC50 <4.50)	CC(NC(=O)c1cc2cc(Cl)ccc2[nH]1)c1ccc(C(=O)N2CCOCC2)cc1 (stereo not drawn) [Compound 90]

IDO cellular assay (SKOV3) pIC50 (IDO (SKOV-3 cells))	TDO cellular assay (A172) pIC50 (TDO (A172 cells))	SMILES
+ (+ = pIC50 4.50-<5.00)	− (− = pIC50 <4.50)	CC(NC(=O)c1cc2cc(Cl)ccc2[nH]1)c1ccc(C(=O)N2CCN(C)CC2)cc1 (stereo not drawn) [Compound 91]
+++ (+++ = pIC50 ≥5.50)	+ (+ = pIC50 4.50-<5.00)	O=C(NC(CO)c1ccccc1)c1cc2cc(Cl)ccc2[nH]1 (stereo not drawn) [Compound 92]
+++ (+++ = pIC50 ≥5.50)	+ (+ = pIC50 4.50-<5.00)	COCCN(C)C(=O)c1ccc(C(C)NC(=O)c2cc3cc(Cl)ccc3[nH]2)cc1 (stereo not drawn) [Compound 93]
++ (++ = pIC50 5.00-<5.50)	+ (+ = pIC50 4.50-<5.00)	CC(NC(=O)c1cc2cc(Cl)ccc2[nH]1)C1CC1 (stereo not drawn) [Compound 94]
+ (+ = pIC50 4.50-<5.00)	− (− = pIC50 <4.50)	CC(NC(=O)c1cc2cc(Cl)ccc2[nH]1)c1ccc(N2CCN(C)CC2)cc1 (stereo not drawn) [Compound 95]
+ (+ = pIC50 4.50-<5.00)	− (− = pIC50 <4.50)	CC(NC(=O)c1cc2cc(Cl)ccc2[nH]1)c1ncc[nH]1 (stereo not drawn) [Compound 96]
++ (++ = pIC50 5.00-<5.50)	+ (+ = pIC50 4.50-<5.00)	CC(NC(=O)c1cc2cc(Cl)ccc2[nH]1)c1cnoc1 (stereo not drawn) [Compound 97]
+++ (+++ = pIC50 ≥5.50)	− (− = pIC50 <4.50)	CC(NC(=O)c1cc2cc(Cl)ccc2[nH]1)C1CCCC1 (stereo not drawn) [Compound 98]
+++ (+++ = pIC50 ≥5.50)	+ (+ = pIC50 4.50-<5.00)	O=C(NC(c1ccccc1)C1CC1)c1cc2cc(Cl)ccc2[nH]1 (stereo not drawn) [Compound 99]
+++ (+++ = pIC50 ≥5.50)	++ (++ = pIC50 5.00-<5.50)	COCCOc1ccc(C(C)NC(=O)c2cc3cc(Cl)ccc3[nH]2)cc1 (stereo not drawn) [Compound 100]
+++ (+++ = pIC50 ≥5.50)	+ (+ = pIC50 4.50-<5.00)	CC(C)C(NC(=O)c1cc2cc(Cl)ccc2[nH]1)c1ccccc1 (stereo not drawn) [Compound 101]
+ (+ = pIC50 4.50-<5.00)	− (− = pIC50 <4.50)	CC(NC(=O)c1cc2cc(Cl)ccc2[nH]1)c1ccc(OCCN(C)C)cc1 (stereo not drawn) [Compound 102]
+++ (+++ = pIC50 ≥5.50)	− (− = pIC50 <4.50)	CC(NC(=O)c1cc2cc(Cl)ccc2[nH]1)C1CCOCC1 (stereo not drawn) [Compound 103]
++ (++ = pIC50 5.00-<5.50)	+ (+ = pIC50 4.50-<5.00)	CC(NC(=O)c1cc2cc(Cl)ccc2[nH]1)c1ncco1 (stereo not drawn) [Compound 104]
+++ (+++ = pIC50 ≥5.50)	− (− = pIC50 <4.50)	CC(=O)N1CCC(C(C)NC(=O)c2cc3cc(Cl)ccc3[nH]2)CC1 (stereo not drawn) [Compound 105]
+ (+ = pIC50 4.50-<5.00)	− (− = pIC50 <4.50)	CNC(=O)c1ccc2[nH]c(C(=O)NC(C)c3ccccc3)cc2c1 (stereo not drawn) [Compound 106]
++ (++ = pIC50 5.00-<5.50)	− (− = pIC50 <4.50)	Cc1ccnc(C(NC(=O)c2cc3cc(Cl)ccc3[nH]2)C2CC2)c1 (stereo not drawn) [Compound 107]
++ (++ = pIC50 5.00-<5.50)	− (− = pIC50 <4.50)	O=C(NCC1CCCN(C(=O)C2CC2)C1)c1cc2cc(Cl)ccc2[nH]1 (stereo not drawn) [Compound 108]
++ (++ = pIC50 5.00-<5.50)	− (− = pIC50 <4.50)	COc1cccc(-c2cc(CNC(=O)c3cc4cc(Cl)ccc4[nH]3)on2)c1 [Compound 109]
++ (++ = pIC50 5.00-<5.50)	− (− = pIC50 <4.50)	O=C(NCCc1nccs1)c1cc2cc(Cl)ccc2[nH]1 [Compound 110]
++ (++ = pIC50 5.00-<5.50)	− (− = pIC50 <4.50)	CC(NC(=O)c1cc2cc(Cl)ccc2[nH]1)C1CCN(S(C)(=O)=O)CC1 (stereo not drawn) [Compound 111]
+++ (+++ = pIC50 ≥5.50)	− (− = pIC50 <4.50)	COc1cccc(-n2cc(CNC(=O)c3cc4cc(Cl)ccc4[nH]3)cn2)c1 [Compound 112]
